Experimental data as given in US20080058345A1, “Combination Therapy with Mecamylamine for the Treatment of Mood Disorders” (priority 2004, published 2008).

Tested on: individuals with major depression who are partial responders (based on HAM-D scores) to selective serotonin reuptake inhibitors
Experiment: 8-week clinical trial of mecamylamine plus SSRI antidepressant versus placebo plus antidepressant
Assay type: in vivo, human
Method: The treatment of depressive symptoms in individuals with major depression who are partial responders (based on HAM-D scores) to selective serotonin reuptake inhibitors (e.g., fluoxetine, sertraline, citalopram, paroxetine, fluvoxamine) was assessed.
Subjects (n=13) were randomly assigned to one of two groups, designated mecamylamine or MEC and Placebo, respectively, for an 8-week clinical trial. Individuals in the MEC group received mecamylamine plus an antidepressant and those in the placebo group received placebo plus an antidepressant Eleven subjects (n=6 randomized to MEC, n=5 to placebo) have completed this 8-week clinical trial and results are presented for those individuals. Two subjects are currently enrolled in the protocol. No clinical or demographic differences have been found between subjects randomized to MEC versus Placebo (Table). […] These preliminary results support our primary hypothesis that central nAChR antagonism augments SSRI-treated refractory major depression.

SMILES: CNC1(C)C2CCC(C2)C1(C)C (stereo not shown) [MEC, Bicyclo(2.2.1)heptan-2-amine, N,2,3,3-tetramethyl-]
- difference between MEC and Placebo groups on any adverse events (8-week trial, MEC plus antidepressant versus placebo plus antidepressant): no significant differences
- adverse event: report of decreased libido (subjects reporting) (8-week trial, MEC plus antidepressant, placebo 1/5, p=0.06): 4/5
- adverse event: constipation (subjects reporting) (8-week trial, MEC plus antidepressant, placebo 3/5, p=0.11): 5/6
- subjects classified as responders, as assessed by a 50% reduction in HAM-D scores (end of 8-week trial, MEC plus antidepressant, n=6 completers, placebo 0/5, p=0.02): Four out of six
